Experimental data as given in PubChem BioAssay AID180 (DTP/NCI, 2004).
“And” between values parts separate entries of the source, which are not always exact repeats. Equal entries are not always repeated.

System: BDF1 mice, Adenocarcinoma 755 s.c., tumor weight T/C
Assay: NCI In Vivo Anticancer Drug Screen. Data for tumor model Adenocarcinoma 755 (subcutaneous) in B6D2F1 (BDF1) mice
Conditions: endpoint: mean tumor weight, higher = larger tumour
Procedure, shortened: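 In vivo antitumor screen on a transplantable tumor line. Result equals the measure in compound-treated animals divided by the same measure in vehicle controls.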

[1] = dose: 50.0 mg/kg/injection, schedule: Q01DX011 (ip), vehicle: methylcellulose (MC)
[2] = dose: 100.0 mg/kg/injection, schedule: Q01DX011 (ip), vehicle: methylcellulose (MC)

CC(C)CSc1nc(N)nc2c1ncn2CC(C)C
T/C (dose: 25.0 mg/kg/injection, schedule: Q01DX011 (ip), vehicle: methylcellulose (MC)): 21 % of control | T/C [1]: 12 % of control | T/C [2]: 1 % of control

CO[C@@H]1[C@@H](OC2OC(C)C(OC3CC(C)(O)C(OC(=O)CC(C)C)C(C)O3)C(N(C)C)C2O)[C@@H](CC=O)C[C@@H](C)C(=O)/C=C/C2O[C@H]2C[C@@H](C)OC(=O)C[C@H]1OC(C)=O (stereo partly drawn)
T/C (dose: 200.0 mg/kg/injection, schedule: Q01DX011 (ip), vehicle: other): 66 % of control | T/C (dose: 250.0 mg/kg/injection, schedule: Q01DX011 (ip), vehicle: other): 60 % of control and 63 % of control | T/C (dose: 300.0 mg/kg/injection, schedule: Q01DX011 (ip), vehicle: other): 24 % of control and 33 % of control | T/C (dose: 350.0 mg/kg/injection, schedule: Q01DX011 (ip), vehicle: other): 45 % of control

Clc1ncnc2nc[nH]c12
T/C (dose: 1.87 mg/kg/injection, schedule: Q01DX006 (iv), vehicle: carboxymethylcellulose (CMC)): 96 % of control | T/C (dose: 1.87 mg/kg/injection, schedule: Q01DX011 (im), vehicle: carboxymethylcellulose (CMC)): 47 % of control | T/C (dose: 1.87 mg/kg/injection, schedule: Q01DX011 (ip), vehicle: carboxymethylcellulose (CMC)): 83 % of control | T/C (dose: 1.87 mg/kg/injection, schedule: Q01DX011 (sc), vehicle: carboxymethylcellulose (CMC)): 103 % of control | T/C (dose: 2.5 mg/kg/injection, schedule: Q01DX011 (ip), vehicle: carboxymethylcellulose (CMC)): 66 % of control | T/C (dose: 3.12 mg/kg/injection, schedule: Q01DX011 (oral), vehicle: carboxymethylcellulose (CMC)): 110 % of control | T/C (dose: 3.12 mg/kg/injection, schedule: Q#A X022 (ip), vehicle: carboxymethylcellulose (CMC)): 48 % of control | T/C (dose: 3.75 mg/kg/injection, schedule: Q01DX006 (iv), vehicle: carboxymethylcellulose (CMC)): 94 % of control | T/C (dose: 3.75 mg/kg/injection, schedule: Q01DX011 (im), vehicle: carboxymethylcellulose (CMC)): 83 % of control | T/C (dose: 3.75 mg/kg/injection, schedule: Q01DX011 (ip), vehicle: carboxymethylcellulose (CMC)): 62 % of control | T/C (dose: 3.75 mg/kg/injection, schedule: Q01DX011 (sc), vehicle: carboxymethylcellulose (CMC)): 76 % of control | T/C (dose: 5.0 mg/kg/injection, schedule: Q01DX011 (ip), vehicle: carboxymethylcellulose (CMC)): 36 % of control and 58 % of control | T/C (dose: 5.0 mg/kg/injection, schedule: Q03DX004 (ip), vehicle: carboxymethylcellulose (CMC)): 81 % of control | T/C (dose: 6.25 mg/kg/injection, schedule: Q01DX011 (oral), vehicle: carboxymethylcellulose (CMC)): 55 % of control | T/C (dose: 6.25 mg/kg/injection, schedule: Q#A X022 (ip), vehicle: carboxymethylcellulose (CMC)): 41 % of control | T/C (dose: 7.5 mg/kg/injection, schedule: Q01DX006 (iv), vehicle: carboxymethylcellulose (CMC)): 82 % of control | T/C (dose: 7.5 mg/kg/injection, schedule: Q01DX011 (im), vehicle: carboxymethylcellulose (CMC)): 22 % of control | T/C (dose: 7.5 mg/kg/injection, schedule: Q01DX011 (ip), vehicle: carboxymethylcellulose (CMC)): 34 % of control | T/C (dose: 7.5 mg/kg/injection, schedule: Q01DX011 (sc), vehicle: carboxymethylcellulose (CMC)): 28 % of control | T/C (dose: 10.0 mg/kg/injection, schedule: Q01DX011 (ip), vehicle: carboxymethylcellulose (CMC)): 27 % of control | T/C (dose: 10.0 mg/kg/injection, schedule: Q01DX011 (ip), vehicle: methylcellulose (MC)): 44 % of control | T/C (dose: 10.0 mg/kg/injection, schedule: Q03DX004 (ip), vehicle: carboxymethylcellulose (CMC)): 66 % of control | T/C (dose: 12.5 mg/kg/injection, schedule: Q01DX011 (oral), vehicle: carboxymethylcellulose (CMC)): 11 % of control | T/C (dose: 12.5 mg/kg/injection, schedule: Q#A X022 (ip), vehicle: carboxymethylcellulose (CMC)): 8 % of control | T/C (dose: 15.0 mg/kg/injection, schedule: Q01DX006 (iv), vehicle: carboxymethylcellulose (CMC)): 25 % of control | T/C (dose: 15.0 mg/kg/injection, schedule: Q01DX011 (ip), vehicle: carboxymethylcellulose (CMC)): 13 % of control | T/C (dose: 15.0 mg/kg/injection, schedule: Q01DX011 (sc), vehicle: carboxymethylcellulose (CMC)): 7 % of control | T/C (dose: 15.0 mg/kg/injection, schedule: Q03DX004 (ip), vehicle: carboxymethylcellulose (CMC)): 55 % of control | T/C (dose: 18.75 mg/kg/injection, schedule: Q07DX002 (ip), vehicle: carboxymethylcellulose (CMC)): 46 % of control | T/C (dose: 25.0 mg/kg/injection, schedule: Q01DX011 (oral), vehicle: carboxymethylcellulose (CMC)): 2 % of control | T/C (dose: 25.0 mg/kg/injection, schedule: Q03DX004 (ip), vehicle: carboxymethylcellulose (CMC)): 35 % of control | T/C (dose: 37.5 mg/kg/injection, schedule: Q01DX001 (ip), vehicle: carboxymethylcellulose (CMC)): 49 % of control and 66 % of control | T/C (dose: 37.5 mg/kg/injection, schedule: Q07DX002 (ip), vehicle: carboxymethylcellulose (CMC)): 16 % of control | T/C (dose: 50.0 mg/kg/injection, schedule: Q01DX011 (ip), vehicle: carboxymethylcellulose (CMC)): 3 % of control | T/C [1]: 5 % of control | T/C (dose: 50.0 mg/kg/injection, schedule: Q01DX011 (sc), vehicle: carboxymethylcellulose (CMC)): 1 % of control | T/C (dose: 50.0 mg/kg/injection, schedule: Q03DX004 (ip), vehicle: carboxymethylcellulose (CMC)): 5 % of control | T/C (dose: 75.0 mg/kg/injection, schedule: Q01DX001 (ip), vehicle: carboxymethylcellulose (CMC)): 18 % of control and 42 % of control | T/C (dose: 75.0 mg/kg/injection, schedule: Q03DX004 (ip), vehicle: carboxymethylcellulose (CMC)): 1 % of control | T/C (dose: 75.0 mg/kg/injection, schedule: Q07DX002 (ip), vehicle: carboxymethylcellulose (CMC)): 1 % of control | T/C (dose: 100.0 mg/kg/injection, schedule: Q01DX011 (ip), vehicle: carboxymethylcellulose (CMC)): 1 % of control and 4 % of control | T/C [2]: 6 % of control | T/C (dose: 150.0 mg/kg/injection, schedule: Q01DX001 (ip), vehicle: carboxymethylcellulose (CMC)): 24 % of control and 29 % of control | T/C (dose: 150.0 mg/kg/injection, schedule: Q07DX002 (ip), vehicle: carboxymethylcellulose (CMC)): 1 % of control | T/C (dose: 175.0 mg/kg/injection, schedule: Q01DX001 (ip), vehicle: carboxymethylcellulose (CMC)): 8 % of control and 17 % of control | T/C (dose: 175.0 mg/kg/injection, schedule: Q07DX002 (ip), vehicle: carboxymethylcellulose (CMC)): 4 % of control | T/C (dose: 300.0 mg/kg/injection, schedule: Q01DX011 (ip), vehicle: methylcellulose (MC)): 4 % of control | T/C (dose: 350.0 mg/kg/injection, schedule: Q01DX001 (ip), vehicle: carboxymethylcellulose (CMC)): 5 % of control and 8 % of control

Brc1ccc(CSc2ncnc3nc[nH]c23)cc1
T/C (dose: 43.75 mg/kg/injection, schedule: Q01DX011 (ip), vehicle: methylcellulose (MC)): 70 % of control | T/C (dose: 87.5 mg/kg/injection, schedule: Q01DX011 (ip), vehicle: methylcellulose (MC)): 28 % of control | T/C (dose: 175.0 mg/kg/injection, schedule: Q01DX011 (ip), vehicle: methylcellulose (MC)): 10 % of control | T/C (dose: 350.0 mg/kg/injection, schedule: Q01DX011 (ip), vehicle: methylcellulose (MC)): 1 % of control

Cn1c(=O)c2[nH]cnc2n(C)c1=O
T/C (dose: 14.5 mg/kg/injection, schedule: Q01DX011 (ip), vehicle: carboxymethylcellulose (CMC)): 85 % of control | T/C (dose: 18.25 mg/kg/injection, schedule: Q01DX011 (ip), vehicle: carboxymethylcellulose (CMC)): 68 % of control | T/C (dose: 19.87 mg/kg/injection, schedule: Q01DX011 (ip), vehicle: carboxymethylcellulose (CMC)): 80 % of control | T/C (dose: 29.0 mg/kg/injection, schedule: Q01DX011 (ip), vehicle: carboxymethylcellulose (CMC)): 44 % of control | T/C (dose: 36.5 mg/kg/injection, schedule: Q01DX011 (ip), vehicle: carboxymethylcellulose (CMC)): 92 % of control | T/C (dose: 39.74 mg/kg/injection, schedule: Q01DX011 (ip), vehicle: carboxymethylcellulose (CMC)): 52 % of control | T/C (dose: 63.0 mg/kg/injection, schedule: Q01DX011 (ip), vehicle: carboxymethylcellulose (CMC)): 86 % of control | T/C (dose: 77.33 mg/kg/injection, schedule: Q01DX011 (ip), vehicle: carboxymethylcellulose (CMC)): 53 % of control and 72 % of control | T/C (dose: 79.48 mg/kg/injection, schedule: Q01DX011 (ip), vehicle: carboxymethylcellulose (CMC)): 53 % of control | T/C (dose: 116.0 mg/kg/injection, schedule: Q01DX011 (ip), vehicle: carboxymethylcellulose (CMC)): 75 % of control | T/C (dose: 158.97 mg/kg/injection, schedule: Q01DX011 (ip), vehicle: carboxymethylcellulose (CMC)): 60 % of control

Nc1nc(SCC(=O)c2ccccc2)c2[nH]cnc2n1
T/C (dose: 0.46 mg/kg/injection, schedule: Q01DX011 (ip), vehicle: saline): 95 % of control | T/C (dose: 0.93 mg/kg/injection, schedule: Q01DX011 (ip), vehicle: saline): 91 % of control | T/C (dose: 1.87 mg/kg/injection, schedule: Q01DX011 (ip), vehicle: saline): 75 % of control | T/C (dose: 15.0 mg/kg/injection, schedule: Q01DX011 (ip), vehicle: saline): 6 % of control | T/C (dose: 30.0 mg/kg/injection, schedule: Q01DX011 (ip), vehicle: saline): 4 % of control and 6 % of control | T/C (dose: 60.0 mg/kg/injection, schedule: Q01DX011 (ip), vehicle: saline): 4 % of control and 12 % of control | T/C (dose: 120.0 mg/kg/injection, schedule: Q01DX011 (ip), vehicle: saline): 2 % of control | T/C (dose: 240.0 mg/kg/injection, schedule: Q01DX011 (ip), vehicle: saline): 2 % of control
